The results in this text go back to ChEMBL document CHEMBL1201862, “PubChem BioAssay data set” (2004).

Among the test systems are DLD-1; DMS-114; KM-20L2; LXFL 529; RXF 631; XF498; Hs-578T; MDA-MB-231; NCI/ADR-RES.
What all share (assay): inhibition of tumour cell growth, NCI panel, 48 h

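Method: 48-hour compound exposure of cells in 96-well plates, five concentrations, linear interpolation of endpoints. Abbreviation: GI50, concentration required for 50% inhibition of growth.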 Active and inactive are the calls of the source. Rule as the data show it: active = GI50 up to about 1.1 µM and inactive = higher. Some results are limits rather than exact numbers.

As to `COc1cc(-c2nnc3n2NC=C(C(=O)O)S3)cc(OC)c1OC`, the GI50 in the assay with DLD-1 was > 57.8 µM (inactive); in the assay with DMS-114, > 56.5 µM (inactive); with KM-20L2, > 59.2 µM (inactive); in the assay with LXFL 529, > 71.6 µM (inactive); with RXF 631 it was > 100 µM (inactive); in the assay on XF498, > 100 µM (inactive).
As to `O=C(CC1SC(Nc2ccccc2Cl)=NC1=O)Nc1ccc(Cl)cc1Cl` (stereo not given), the GI50 in the assay with DLD-1 was > 100 µM (inactive); in the assay on DMS-114 it was 78.2 µM (inactive); in the assay with KM-20L2, > 100 µM (inactive); in the assay with LXFL 529, > 100 µM (inactive); in the assay with RXF 631 it was > 100 µM (inactive); in the assay with XF498, > 100 µM (inactive).
For `CSc1ccc2c(cc1=O)C(NC(=O)c1ccc(C#N)cc1)CCc1cc(O)c(O)c(O)c1-2` (stereo not given), the GI50 in the assay on DLD-1 was 23.1 µM (inactive); in the assay with DMS-114, 14.8 µM (inactive); with KM-20L2, 24.7 µM (inactive); with LXFL 529, 19.8 µM (inactive); with RXF 631, 49.8 µM (inactive); with XF498 it was 26.8 µM (inactive).
With `CCOC(=O)Cc1nc2ccc3c(c2nc1O)C(=O)c1ccccc1C3=O`, the GI50 was 23.7 µM (inactive) in the assay on DLD-1; 20.5 µM (inactive) in the assay with DMS-114; > 100 µM (inactive) in the assay on KM-20L2; 47.9 µM (inactive) in the assay on LXFL 529; 39.5 µM (inactive) in the assay on RXF 631; 52.8 µM (inactive) with XF498.
As for `CCC(C)SC1SCC2C(=O)N(C)C3(CC3C)C(=O)OCC(NC(=O)c3nc4ccccc4cc3O)C(=O)NC(C)C(=O)N(C)C1C(=O)N(C)C1(CC1C)C(=O)OCC(NC(=O)c1nc3ccccc3cc1O)C(=O)NC(C)C(=O)N2C` (stereo not given), the GI50 with DLD-1 is 0.0002 µM (active); in the assay with DMS-114, 0.000107 µM (active); in the assay on Hs-578T it was 0.0524 nM (active); in the assay on KM-20L2, 0.000137 µM (active); in the assay on LXFL 529 it was 3.1e-05 µM (active); in the assay with MDA-MB-231, 0.0578 nM (active). Also, the GI50 is 0.0331 µM (active) with NCI/ADR-RES, 0.000195 µM (active) in the assay with RXF 631 and 5.07e-05 µM (active) in the assay with XF498.
For the compound `O=c1nc(N2CCCC2)nc(N2CCCC2)s1`, the GI50 in the assay on DLD-1, in the assay on DMS-114, with KM-20L2, with LXFL 529, in the assay on RXF 631 and in the assay with XF498 was > 100 µM (inactive) throughout.
Regarding `COc1cccc(-c2cc(=O)c3cc(C)c(C)c(C(=O)O)c3o2)c1`, the GI50 in the assay with DLD-1, in the assay with DMS-114, in the assay with KM-20L2, with LXFL 529, with RXF 631 and with XF498 was > 100 µM (inactive) throughout.
